{
  "source": "patent US6452005B1",
  "about": "“JAK-3 inhibitors for treating allergic disorders” (Parker Hughes Institute, priority 1999, dated 2002)",
  "key": {"[1]": {"biological_target": "T1, LYN (Homo sapiens, UniProt P07948)", "T1 construct": "LYN was immunoprecipitated from whole cell lysates of NALM-6 human leukemia cells; endogenous in cells; host or cells: NALM-6 human B-lineage ALL cells", "T1 sequence (P07948 whole entry)": "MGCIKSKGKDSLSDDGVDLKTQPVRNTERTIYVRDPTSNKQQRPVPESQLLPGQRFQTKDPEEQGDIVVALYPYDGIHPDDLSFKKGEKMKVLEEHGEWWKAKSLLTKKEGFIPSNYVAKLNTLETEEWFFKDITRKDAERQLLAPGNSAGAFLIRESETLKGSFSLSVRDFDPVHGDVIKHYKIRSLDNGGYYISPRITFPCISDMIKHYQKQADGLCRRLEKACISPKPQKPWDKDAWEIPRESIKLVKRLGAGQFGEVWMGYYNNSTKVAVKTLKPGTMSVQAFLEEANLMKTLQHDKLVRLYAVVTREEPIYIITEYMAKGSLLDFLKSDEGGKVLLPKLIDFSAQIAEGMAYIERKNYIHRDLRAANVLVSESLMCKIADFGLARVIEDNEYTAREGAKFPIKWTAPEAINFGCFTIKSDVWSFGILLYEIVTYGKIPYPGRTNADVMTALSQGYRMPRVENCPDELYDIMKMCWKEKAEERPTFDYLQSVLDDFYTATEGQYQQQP", "assay": "Immune complex kinase assay, LYN from NALM-6 cells", "assay_type": "biochemical", "conditions": "concentrations as high as 350 μM"}, "[2]": {"assay": "Pharmacokinetic studies in mice", "assay_type": "in vivo", "conditions": "for Cmax: 12.5 mg/kg bolus, read-out: estimated maximum plasma concentration (Cmax)", "description": "FIGS. 13A and 13B are graphs showing pharmacokinetic features of the JAK3 inhibitor WHI-P131 in mice. Plasma concentration-time profiles of WHI-P131 in mice following intravenous [13A] or intraperitoneal [13B] administration (12.5 mg/kg; 5 mice per group). The pharmacokinetic parameters, including the central volume of distribution (Vc), estimated maximum plasma concentration (Cmax), elimination half-life (t½β), systemic exposure level/area under plasma concentration-time curve (AUC), and bioavailability (F), are shown in the insets.\nPharmacokinetic Studies: In pharmacokinetic studies, mice were injected either intravenously (i.v.) via the tail vein or intraperitoneally (i.p.) with a bolus dose of 300 μg/mouse (12.5 mg/kg =34 μmols/kg) of WHI-P131. Blood samples were obtained from the ocular venous plexus by retroorbital venupuncture prior to and at 3 minutes, 5 minutes, 10 minutes, 15 minutes, 30 minutes, 45 minutes and 1 hour, 2 hours, 4 hours and 8 hours a administration of WHI-P131. All collected blood samples were heparinized and centrifuged at 7,000×g for 10 minutes in a microcentrifuge to obtain plasma. The plasma samples were stored at −20° C. until analysis. Aliquots of plasma were used for extraction and HPLC analysis. Pharmacokinetic modeling and pharmacokinetic parameter calculations were carried out using the pharmacokinetics software, WinNonline Program, Version 1.1. (Scientific Consulting Inc., Cary, N.C.). Concentration data were weighted by 1/concentration. An appropriate pharmacokinetic model was chosen on the basis of lowest weighted squared residuals, lowest Schwartz criterion (SC), lowest Akaike's Information Criterion (AIC) value, lowest standard errors of the fitted parameters, and dispersion of the residuals. The elimination half-life was estimated by linear regression analysis of the terminal phase of the plasma concentration profile. The area under the concentration time curve (AUC) was calculated by the trapezoidal rule between first (0 h) and last sampling time plus C/k, where C is the concentration of last sampling and k is the elimination rate constant. Systemic clearance (CL) was determined by dividing the dose by the AUC. The apparent volume of distribution at steady-state was calculated using the following equation, Vss=Dose·AUMC/(AUC)^2 Bioavailability (F) was estimated using the equation F(%)=AUCip×Doseiv/AUCiv×Doseip.\nIn brief, the HPLC system consisted of a Hewlett Packard (HP) series 1100 equipped with an automated electronic degasser, a quaternary pump, an autosampler, an automatic thermostatic column compartment, diode array detector and a computer with a Chemstation software program for data analysis. A 250×4 mm Lichrospher 100, RP-18 (5 μm) analytical column and a 4×4 mm Lichrospher 100, RP-18 (5 μm) guard column were obtained from Hewlett Packard Inc. (San Fernando, Calif.). Acetonitrile/water containing 0.1% of trifluoroacetic acid (TFA) and 0.1% triethylamine (TEA) (28:72, v/v) was used as the mobile phase. The wavelength of detection was set at 340 nm. Peak width, response time and slit were set at >0.03 minutes, 0.5 seconds and 8 nm, respectively. […] For extraction, 7 ml chloroform was then added to the plasma sample, and the mixture was vortexed thoroughly for 3 minutes. Following centrifugation (300×g, 5 minutes), the aqueous layer was frozen using acetone/dry ice and the organic phase was transferred into a clean test tube. The chloroform extracts were dried under a slow steady stream of nitrogen. The residue was reconstituted in 100 μL of methanol: water (9:1) and 50 μL aliquot of this solution was used for HPLC analysis."}, "[3]": {"tested_on": "BALB/c mice", "assay": "IgE/antigen-induced active systemic anaphylaxis model", "assay_type": "in vivo", "conditions": "BSA-sensitized mice, two doses of 45 mg/kg before challenge; 8 of 15", "description": "FIG. 14E is a graph showing results of a study of the effect of JAK3 inhibitor WHI-P131 on fatal anaphylaxis in mice. BALB/c mice were sensitized with 100 mg/kg bovine serum albumin in 200 μl of the adjuvant aluminum hydroxide gel (Reheis Inc., Berkeley, N.J.), which favors the production of IgE in response to the presented antigen. Ten days later, mice were treated with two doses of WHI-P131 (45 mg/kg) or vehicle 30 minutes apart and then challenged with an i.v. injection of the 10 mg/kg BSA. Cumulative proportions of mice surviving anaphylaxis-free are shown according to the time after the antigen challenge.\nTo induce passive systemic anaphylaxis, BALB/c mice were sensitized with […] DNP-IgE intravenously. At 24 hours DNP-BSA (2 mg) was administered intravenously with 0.5% Evans blue (200 μl). For assessment of vascular leak, animals were sacrificed 30 minutes after the antigen challenge and their foot pads were examined for blue coloration. Histamine levels in plasma were measured 5 minutes after the antigen challenge. […] For histopathologic evaluation of tissue mast cell degranulation, ears of mice were removed 1 hour after the DNP-BSA injection and fixed in 10 percent buffered formalin. […]"}, "[4]": {"tested_on": "human mast cells", "conditions": "IgE-sensitized, anti-IgE challenge, 30 minutes exposure", "protocol": "Human Mast Cells: Cells from human fetal livers (16 to 21 weeks of gestational age) were cultured for 5 weeks in the presence of 50 ng/ml rhSCF, 2 ng/ml rhlL-4 (Xia et. al., 1997, J. Immunol., 159:2911-2921). Culture medium was replaced with fresh medium once a week for the first 2 weeks and twice a week thereafter. At the end of the 5 weeks, the fetal liver derived cell cultures contained>70% mast cells, based on tryptase staining (Irani et. al., 1989, J. Histochem. Cytochem, 37:1509-1515).\nFetal liver derived human mast cells were resuspended in tyrode buffer containing calcium and magnesium and challenged with anti-FcεRI antibody 22E7 for 15 minutes. […]\nLeukotriene (LT) C4 levels were estimated in cell free supernatants by immunoassay (Malaviya et. al., 1993, J. Biol. Chem., 268:4939-4944). […] Tryptase levels were quantitated in cell free supernatants and pellets of fetal liver derived human mast cells as has been described in detail (Xia et. al., 1997, J. Immunol., 159:2911-2921).\nFetal liver derived human mast cells were cultured in presence of SCF and IL-4 for 5 weeks. […] The FcεRI receptors of fetal liver derived human mast cells were crosslinked with anti-IgE and the resulting mast cell degranulation (i.e., β-tryptase) (Xia et. al., 1997, J. Immunol., 159:2911-2921) and LTC4 release (Malaviya et. al., 1993, J. Biol. Chem., 268:4939-4944) were quantitated."}},
  "note": "Like-named read-outs stand apart in the source and are kept apart here.",
  "data": [
    {"compound": "COc1cc2ncnc(Nc3ccc(O)cc3)c2cc1OC", "note": "[WHI-P131, 4-(4′-Hydroxylphenyl)-amino-6,7-dimethoxyquinazoline]", "values": [
      {"measurement": "effect on enzymatic activity of LYN", "setting": "[1]", "value": "did not affect"},
      {"measurement": "absorption half-life", "setting": "[2]; i.p., 12.5 mg/kg", "value": 6, "unit": "min"},
      {"measurement": "estimated bioavailability", "setting": "[2]; i.p., 12.5 mg/kg", "value": 94.4, "unit": "%"},
      {"measurement": "time to reach maximum plasma concentration", "setting": "[2]; i.p., 12.5 mg/kg", "value": 0.17, "unit": "h"},
      {"measurement": "β-half-life", "setting": "[2]; i.p., 12.5 mg/kg", "value": 1.9, "unit": "h"},
      {"measurement": "Cmax", "setting": "[2]; i.p.", "value": 57.7, "unit": "µM"},
      {"measurement": "β-half-life", "setting": "[2]; i.v., 12.5 mg/kg", "value": 2.1, "unit": "h"},
      {"measurement": "Cmax", "setting": "[2]; i.v.", "value": 85.6, "unit": "µM"},
      {"measurement": "mice surviving without any signs of anaphylaxis", "setting": "[3]", "value": 53, "unit": "%"},
      {"measurement": "release of LTC4", "setting": "[4]", "value": "inhibited"},
      {"measurement": "release of β-tryptase", "setting": "[4]", "value": "inhibited"}
    ]}
  ]
}
